Reference: ChEMBL document CHEMBL5303573, “Mapping human microbiome drug metabolism by gut bacteria and their genes” (Nature, 2019)

Columns and labels:
[1] = The drug is tested on Bifidobacterium longum subsp. Infantis strain: CCUG52486 for biotransformation. The drug concentrations were measured before and after a 12-h incubation by liquid-chromatography-coupled mass spectrometry (LC–MS); conditions: 2 µM
[2] = The drug is tested on Bifidobacterium ruminantium strain: fecal isolate for biotransformation. The drug concentrations were measured before and after a 12-h incubation by liquid-chromatography-coupled mass spectrometry (LC–MS); conditions: 2 µM
[3] = The drug is tested on Bacteroides caccae strain: ATCC43185 for biotransformation. The drug concentrations were measured before and after a 12-h incubation by liquid-chromatography-coupled mass spectrometry (LC–MS); conditions: 2 µM
[4] = The drug is tested on Bacteroides dorei strain: DSM17855 for biotransformation. The drug concentrations were measured before and after a 12-h incubation by liquid-chromatography-coupled mass spectrometry (LC–MS); conditions: phocaeicola dorei, 2 µM
[5] = The drug is tested on Bacteroides sp. WH2 strain: WH2 for biotransformation. The drug concentrations were measured before and after a 12-h incubation by liquid-chromatography-coupled mass spectrometry (LC–MS); conditions: bacteroides sp. wh2, 12 h, 2 µM
[6] = The drug is tested on Anaerococcus hydrogenalis strain: DSM7454 for biotransformation. The drug concentrations were measured before and after a 12-h incubation by liquid-chromatography-coupled mass spectrometry (LC–MS); conditions: 2 µM
[7] = The drug is tested on Blautia luti strain: DSM14534 for biotransformation. The drug concentrations were measured before and after a 12-h incubation by liquid-chromatography-coupled mass spectrometry (LC–MS); assay type: ADME; parameters: dose 2 uM, timepoint 0 vs 12 hours; conditions: 2 µM
[8] = The drug is tested on Clostridium scindens strain: ATCC35704 for biotransformation. The drug concentrations were measured before and after a 12-h incubation by liquid-chromatography-coupled mass spectrometry (LC–MS); conditions: 2 µM
[9] = The drug is tested on Enterococcus faecalis strain: V583 for biotransformation. The drug concentrations were measured before and after a 12-h incubation by liquid-chromatography-coupled mass spectrometry (LC–MS); conditions: 2 µM
[10] = The drug is tested on Eubacterium ventriosum strain: ATCC27560 for biotransformation. The drug concentrations were measured before and after a 12-h incubation by liquid-chromatography-coupled mass spectrometry (LC–MS); assay type: ADME; parameters: dose 2 uM, timepoint 0 vs 12 hours; conditions: 2 µM
[11] = The drug is tested on Ruminococcus torques strain: ATCC27756 for biotransformation. The drug concentrations were measured before and after a 12-h incubation by liquid-chromatography-coupled mass spectrometry (LC–MS); assay type: ADME; parameters: dose 2 uM, timepoint 0 vs 12 hours; conditions: 2 µM
[12] = The drug is tested on Enterobacter cancerogenus strain: ATCC35316 for biotransformation. The drug concentrations were measured before and after a 12-h incubation by liquid-chromatography-coupled mass spectrometry (LC–MS); conditions: 2 µM
[13] = bacteroides fragilis, 12 h, 2 µM
Description: The drug is tested on Bacteroides fragilis strain: NCTC 9343 for biotransformation. The drug concentrations were measured before and after a 12-h incubation by liquid-chromatography-coupled mass spectrometry (LC–MS)

[14] = bacteroides fragilis, 12 h, 2 µM; remark: listed apart in the source
Description: The drug is tested on Bacteroides fragilis strain: 3397 (T10) for biotransformation. The drug concentrations were measured before and after a 12-h incubation by liquid-chromatography-coupled mass spectrometry (LC–MS)

[15] = bacteroides stercoris, 12 h, 2 µM
Description: The drug is tested on Bacteroides stercoris strain: ATCC43183 for biotransformation. The drug concentrations were measured before and after a 12-h incubation by liquid-chromatography-coupled mass spectrometry (LC–MS)

[16] = bacteroides thetaiotaomicron, 12 h, 2 µM
Description: The drug is tested on Bacteroides thetaiotaomicron strain: 3731 for biotransformation. The drug concentrations were measured before and after a 12-h incubation by liquid-chromatography-coupled mass spectrometry (LC–MS)

[17] = parabacteroides distasonis, 12 h, 2 µM
Description: The drug is tested on Parabacteroides distasonis strain: ATCC8503 for biotransformation. The drug concentrations were measured before and after a 12-h incubation by liquid-chromatography-coupled mass spectrometry (LC–MS)

[18] = segatella copri, 12 h, 2 µM
Description: The drug is tested on Prevotella copri strain: DSM18205 for biotransformation. The drug concentrations were measured before and after a 12-h incubation by liquid-chromatography-coupled mass spectrometry (LC–MS)

[19] = The drug is tested on Bacteroides fragilis strain: HMW610 for biotransformation. The drug concentrations were measured before and after a 12-h incubation by liquid-chromatography-coupled mass spectrometry (LC–MS); conditions: 2 µM

Row | Compound | Bacterial Biotransformation [1] | Bacterial Biotransformation [2] | Bacterial Biotransformation [3] | Bacterial Biotransformation [4] | Bacterial Biotransformation [5] | Bacterial Biotransformation [6] | Bacterial Biotransformation [7] | Bacterial Biotransformation [8] | Bacterial Biotransformation [9] | Bacterial Biotransformation [10] | Bacterial Biotransformation [11] | Bacterial Biotransformation [12] | Bacterial Biotransformation [13] | Bacterial Biotransformation [14] | Bacterial Biotransformation [15] | Bacterial Biotransformation [16] | Bacterial Biotransformation [17] | Bacterial Biotransformation [18] | Bacterial Biotransformation [19]
1 | CN1C[C@H](C(=O)N[C@]2(C)O[C@@]3(O)[C@@H]4CCCN4C(=O)[C@H](Cc4ccccc4)N3C2=O)C=C2c3cccc4[nH]cc(c34)C[C@H]21.CN1C[C@H](C(=O)N[C@]2(C)O[C@@]3(O)[C@@H]4CCCN4C(=O)[C@H](Cc4ccccc4)N3C2=O)C=C2c3cccc4[nH]cc(c34)C[C@H]21.O=C(O)C(O)C(O)C(=O)O [ERGOTAMINE TARTRATE] | Compound metabolized | Compound metabolized | Compound metabolized | Compound metabolized | Compound metabolized | Compound metabolized | Compound metabolized | Compound metabolized | Compound NOT metabolized | Compound NOT metabolized | Compound NOT metabolized | Compound metabolized | Compound metabolized | Compound metabolized | Compound metabolized | Compound metabolized | Compound metabolized | Compound metabolized | 
2 | CCCC(=O)Nc1ccc(OCC(O)CNC(C)C)c(C(C)=O)c1 (stereo not given) [ACEBUTOLOL] | Compound NOT metabolized | Compound NOT metabolized | Compound NOT metabolized | Compound NOT metabolized | Compound NOT metabolized | Compound NOT metabolized | Compound NOT metabolized | Compound NOT metabolized | Compound NOT metabolized | Compound NOT metabolized | Compound NOT metabolized | Compound NOT metabolized | Compound NOT metabolized | Compound NOT metabolized | Compound NOT metabolized | Compound NOT metabolized |  | Compound NOT metabolized | Compound NOT metabolized
3 | CN1C(=O)CCS(=O)(=O)C1c1ccc(Cl)cc1 (stereo not given) [CHLORMEZANONE] | Compound NOT metabolized | Compound metabolized | Compound NOT metabolized |  |  | Compound NOT metabolized |  | Compound NOT metabolized | Compound NOT metabolized | Compound NOT metabolized | Compound NOT metabolized | Compound NOT metabolized | Compound NOT metabolized | Compound NOT metabolized |  |  | Compound NOT metabolized | Compound NOT metabolized | Compound NOT metabolized
4 | CN(C)CCC=C1c2ccccc2C=Cc2ccccc21 [CYCLOBENZAPRINE] | Compound NOT metabolized | Compound NOT metabolized | Compound NOT metabolized |  | Compound NOT metabolized | Compound NOT metabolized | Compound NOT metabolized | Compound NOT metabolized | Compound NOT metabolized | Compound NOT metabolized | Compound NOT metabolized | Compound NOT metabolized | Compound NOT metabolized | Compound NOT metabolized | Compound NOT metabolized |  | Compound NOT metabolized | Compound NOT metabolized | Compound NOT metabolized
5 | CN1CCN(C2=Nc3cc(Cl)ccc3Nc3ccccc32)CC1 [CLOZAPINE] | Compound NOT metabolized | Compound NOT metabolized | Compound NOT metabolized | Compound NOT metabolized | Compound NOT metabolized | Compound NOT metabolized | Compound NOT metabolized | Compound NOT metabolized |  | Compound NOT metabolized | Compound NOT metabolized | Compound NOT metabolized | Compound NOT metabolized | Compound NOT metabolized | Compound NOT metabolized | Compound NOT metabolized |  | Compound NOT metabolized | Compound NOT metabolized
6 | Clc1cccc(Cl)c1N=C1NCCN1 [CLONIDINE] | Compound NOT metabolized | Compound NOT metabolized | Compound NOT metabolized | Compound metabolized | Compound NOT metabolized | Compound NOT metabolized | Compound NOT metabolized | Compound NOT metabolized | Compound NOT metabolized | Compound NOT metabolized | Compound NOT metabolized | Compound NOT metabolized | Compound metabolized | Compound metabolized | Compound metabolized | Compound metabolized | Compound NOT metabolized | Compound NOT metabolized | 
7 | CN1CCC(=C2c3ccccc3CCc3cccnc32)CC1.O=C(O)/C=C\C(=O)O.O=C(O)/C=C\C(=O)O [AZATADINE MALEATE] | Compound NOT metabolized | Compound NOT metabolized | Compound NOT metabolized |  | Compound NOT metabolized | Compound NOT metabolized | Compound NOT metabolized | Compound NOT metabolized | Compound NOT metabolized | Compound NOT metabolized | Compound NOT metabolized | Compound NOT metabolized | Compound NOT metabolized | Compound NOT metabolized | Compound NOT metabolized | Compound NOT metabolized | Compound NOT metabolized | Compound NOT metabolized | Compound NOT metabolized
8 | CC(C)(C#N)c1cc(Cn2cncn2)cc(C(C)(C)C#N)c1 [ANASTROZOLE] | Compound NOT metabolized | Compound metabolized | Compound metabolized |  | Compound NOT metabolized | Compound NOT metabolized | Compound NOT metabolized | Compound NOT metabolized | Compound NOT metabolized | Compound NOT metabolized | Compound NOT metabolized | Compound NOT metabolized | Compound metabolized | Compound metabolized | Compound metabolized | Compound NOT metabolized |  | Compound metabolized | Compound NOT metabolized
9 | CCN1CCCC1CNC(=O)c1cc(S(=O)(=O)CC)c(N)cc1OC (stereo not given) [AMISULPRIDE] | Compound NOT metabolized | Compound NOT metabolized | Compound NOT metabolized | Compound NOT metabolized | Compound NOT metabolized | Compound NOT metabolized | Compound NOT metabolized | Compound NOT metabolized | Compound NOT metabolized | Compound NOT metabolized | Compound NOT metabolized | Compound NOT metabolized | Compound NOT metabolized | Compound NOT metabolized | Compound NOT metabolized | Compound NOT metabolized | Compound NOT metabolized | Compound NOT metabolized | 
